Test results taken from the supplement of paper PMC9663587.

Columns and labels:
Assay in all cases: GRmax, 72 h; higher = less effect;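 further: breast cell lines in 384-well plates, nine doses across a 10^4 range, Dye Drop imaging of viable cells vs DMSO and time-zero plates, GR 0 means no net growth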
[1] = system: BT20
[2] = system: BT549
[3] = system: EFM19
[4] = system: HCC1937
[5] = system: MCF12A
[6] = system: MDAMB175VII
[7] = system: PDX1258
[8] = system: PDXHCI002
[9] = system: SKBR3
[10] = system: SUM1315
[11] = system: UACC812
[12] = system: UACC893

Row | SMILES | GRmax, 72 h [1] | GRmax, 72 h [2] | GRmax, 72 h [3] | GRmax, 72 h [4] | GRmax, 72 h [5] | GRmax, 72 h [6] | GRmax, 72 h [7] | GRmax, 72 h [8] | GRmax, 72 h [9] | GRmax, 72 h [10] | GRmax, 72 h [11] | GRmax, 72 h [12] | GRmax, 72 h ([1]; main component drawn) | GRmax, 72 h ([2]; main component drawn) | GRmax, 72 h ([4]; main component drawn) | GRmax, 72 h ([7]; main component drawn) | GRmax, 72 h ([8]; main component drawn) | GRmax, 72 h ([9]; main component drawn) | GRmax, 72 h ([10]; main component drawn)
1 | NC(=O)Nc1cc(-c2cccc(F)c2)sc1C(=O)N[C@H]1CCCNC1 [AZD7762] (max 10 µM) | -0.578 GR | -0.482 GR | -0.149 GR | -0.362 GR | -0.211 GR | -0.811 GR | -0.453 GR | -0.582 GR | -0.451 GR | -0.653 GR | -0.8 GR | -0.308 GR | – | – | – | – | – | – | –
2 | Cc1nc(NC(=O)N2CCC[C@H]2C(N)=O)sc1-c1ccnc(C(C)(C)C(F)(F)F)c1 [Alpelisib/BYL719] (max 10 µM) | -0.118 GR | 0.684 GR | -0.151 GR | 0.658 GR | 0.825 GR | -0.697 GR | 0.631 GR | 0.63 GR | -0.143 GR | 0.383 GR | -0.0521 GR | -0.757 GR | – | – | – | – | – | – | –
3 | CN(C)C/C=C/C(=O)Nc1ccc(O[C@@H]2CCC[C@@H](Nc3ncc(Cl)c(-c4c[nH]c5ccccc45)n3)C2)cc1 [BSJ-01-175] (max 10 µM) | -0.669 GR | -0.593 GR | -0.322 GR | -0.603 GR | -0.292 GR | -0.798 GR | -0.914 GR | -0.297 GR | -0.769 GR | -0.864 GR | -0.92 GR | -0.904 GR | – | – | – | – | – | – | –
4 | CC(=O)c1c(C)c2cnc(Nc3ccc(N4CCN(CCOCCOCCOCCNC(=O)COc5cccc6c5C(=O)N(C5CCC(=O)NC5=O)C6=O)CC4)cn3)nc2n(C2CCCC2)c1=O (centres undefined) [BSJ-03-123] (max 10 µM) | -0.005 GR | 0.0183 GR | 0.156 GR | 0.493 GR | 0.129 GR | 0.0607 GR | -0.415 GR | -0.0835 GR | -0.347 GR | 0.236 GR | -0.312 GR | 0.289 GR | – | – | – | – | – | – | –
5 | CC(C)Nc1cc(-c2c[nH]c(C(=O)N[C@H](CO)c3cccc(Cl)c3)c2)c(Cl)cn1 [BVD523] (max 10 µM) | 0.463 GR | 0.545 GR | 0.798 GR | 0.534 GR | 0.104 GR | -0.31 GR | 0.163 GR | 0.286 GR | 0.34 GR | 0.207 GR | 0.176 GR | 0.274 GR | – | – | – | – | – | – | –
6 | Cc1c(N)nc([C@H](CC(N)=O)NC[C@H](N)C(N)=O)nc1C(=O)N[C@H](C(=O)N[C@H](C)[C@@H](O)[C@H](C)C(=O)N[C@H](C(=O)NCCc1nc(-c2nc(C(=O)NCCC[S+](C)C)cs2)cs1)[C@@H](C)O)[C@@H](OC1OC(CO)C(O)C(O)C1OC1OC(CO)C(O)C(OC(N)=O)C1O)c1cnc[nH]1 (some centres undefined) [Bleomycin] (max 10 µM) | – | – | – | – | – | – | – | – | – | – | – | – | -0.129 GR | -0.0141 GR | 0.139 GR | 0.0721 GR | -0.12 GR | 0.187 GR | 0.149 GR
7 | Nc1cc(C(F)(F)F)c(-c2cc(N3CCOCC3)nc(N3CCOCC3)n2)cn1 [Buparlisib/NVP-BKM120] (max 10 µM) | -0.551 GR | -0.272 GR | -0.356 GR | -0.226 GR | -0.113 GR | -0.976 GR | -0.392 GR | -0.48 GR | -0.373 GR | -0.369 GR | -0.822 GR | -0.833 GR | – | – | – | – | – | – | –
8 | COc1cc2nccc(Oc3ccc(NC(=O)C4(C(=O)Nc5ccc(F)cc5)CC4)cc3)c2cc1OC [Cabozantinib] (max 10 µM) | -0.203 GR | 0.533 GR | 0.668 GR | 0.76 GR | 0.96 GR | 0.0863 GR | 0.28 GR | 0.234 GR | 0.442 GR | 0.11 GR | 0.298 GR | 0.735 GR | – | – | – | – | – | – | –
9 | COc1cc2c(Oc3ccc4[nH]c(C)cc4c3F)ncnc2cc1OCCCN1CCCC1 [Cediranib/AZD2171] (max 10 µM) | 0.221 GR | -0.135 GR | 0.685 GR | 0.278 GR | 0.937 GR | -0.648 GR | -0.561 GR | -0.432 GR | -0.54 GR | -0.228 GR | -0.575 GR | -0.458 GR | – | – | – | – | – | – | –
10 | Cc1cc(Nc2ncc(Cl)c(Nc3ccccc3S(=O)(=O)C(C)C)n2)c(OC(C)C)cc1C1CCNCC1 [Ceritinib/LDK378] (max 10 µM) | -0.737 GR | -0.228 GR | -0.258 GR | -0.573 GR | 0.172 GR | 0.261 GR | -0.684 GR | -0.634 GR | -0.825 GR | -0.765 GR | -0.983 GR | 0.807 GR | – | – | – | – | – | – | –
11 | N.N.[Cl][Pt][Cl] [Cisplatin] (max 10 µM) | -0.337 GR | 0.0674 GR | – | 0.006 GR | – | – | 0.318 GR | -0.0985 GR | 0.249 GR | 0.203 GR | – | – | – | – | – | – | – | – | –
12 | Cc1nc(Nc2ncc(C(=O)Nc3c(C)cccc3Cl)s2)cc(N2CCN(CCO)CC2)n1 [Dasatinib] (max 10 µM) | 0.283 GR | 0.37 GR | -0.0421 GR | 0.0153 GR | -0.0434 GR | -0.714 GR | -0.134 GR | 0.0322 GR | 0.081 GR | -0.237 GR | -0.714 GR | 0.706 GR | – | – | – | – | – | – | –
13 | COc1cccc2c1C(=O)c1c(O)c3c(c(O)c1C2=O)C[C@@](O)(C(=O)CO)C[C@@H]3O[C@H]1C[C@H](N)[C@H](O)[C@H](C)O1 [Doxorubicin] (max 3.162 µM) | -0.481 GR | -0.331 GR | -0.18 GR | -0.166 GR | -0.138 GR | -0.595 GR | -0.493 GR | -0.654 GR | -0.616 GR | -0.0635 GR | -0.919 GR | -0.405 GR | – | – | – | – | – | – | –
14 | CO[C@H]1C[C@@H]2CC[C@@H](C)[C@@](O)(O2)C(=O)C(=O)N2CCCC[C@H]2C(=O)O[C@H]([C@H](C)C[C@@H]2CC[C@@H](OCCO)[C@H](OC)C2)CC(=O)[C@H](C)/C=C(\C)[C@@H](O)[C@@H](OC)C(=O)[C@H](C)C[C@H](C)/C=C/C=C/C=C/1C [Everolimus] (max 10 µM) | 0.39 GR | 0.52 GR | 0.249 GR | 0.632 GR | 0.571 GR | -0.189 GR | 0.631 GR | 0.987 GR | 0.118 GR | 0.402 GR | -0.0713 GR | 0.159 GR | – | – | – | – | – | – | –
15 | CCC(=O)Nc1ccc(C(=O)Nc2ccc(Nc3ncc4c(n3)N(C)c3ccc(C)cc3C(=O)N4C)cc2)cc1 [FMF-03-145-1] | -0.201 GR | -0.0339 GR | 0.175 GR | -0.0558 GR | 0.0223 GR | 0.0817 GR | -0.267 GR | -0.102 GR | -0.0145 GR | -0.274 GR | -0.198 GR | 0.127 GR | – | – | – | – | – | – | –
16 | COc1cc(N2CCN(C)CC2)ccc1Nc1ncc2c(n1)N(C)c1ccccc1C(=O)N2CC(F)(F)F [FMF-03-146-1] | 0.973 GR | 0.839 GR | 0.947 GR | 0.846 GR | 0.95 GR | 0.887 GR | 1.2 GR | 1.02 GR | 0.676 GR | 0.824 GR | 0.918 GR | 0.987 GR | – | – | – | – | – | – | –
17 | CC[C@@]1(O)C(=O)OCc2c1cc1n(c2=O)Cc2cc3c(CN(C)C)c(O)ccc3nc2-1 [Topotecan] (max 10 µM) | -0.641 GR | -0.241 GR | – | -0.428 GR | – | – | -0.457 GR | -0.701 GR | -0.271 GR | -0.332 GR | – | – | – | – | – | – | – | – | –
